Data reported in patent US8791107B2, “N-substituted oxazinopteridines and oxazinopteridinones” (Takeda Pharmaceutical Company Limited, priority 2011, dated 2014).

Molecular target: T1, PI3Kδ (Homo sapiens, UniProt O00329)
T1 construct: The protein is full length and co-expressed with untagged PIK3R1; GST; purchased Invitrogen PV5274
Test: PI3Kδ inhibition, modified PIK3CD Adapta TR-FRET assay
Type: biochemical
Details: recombinant GST-tagged full length PIK3CD co-expressed with PIK3R1 (p85α); 2 μM ATP, 50 μM PIP2; read-out: PI3Kδ Inhibition (pIC50) (converted)
Summary of the method: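 Full-length GST-PIK3CD co-expressed with p85α was run in 50 mM HEPES pH 7.5, 3 mM MgCl2, 1 mM EGTA, 100 mM NaCl, 0.03% CHAPS, 2 mM DTT, 1% DMSO, with 12-point compound titrations. Reactions at room temperature were started with solution containing 2 μM ATP and 50 μM PIP2. ADP was detected by Adapta TR-FRET (620 nm-ratioed).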

T1 sequence (O00329 whole entry): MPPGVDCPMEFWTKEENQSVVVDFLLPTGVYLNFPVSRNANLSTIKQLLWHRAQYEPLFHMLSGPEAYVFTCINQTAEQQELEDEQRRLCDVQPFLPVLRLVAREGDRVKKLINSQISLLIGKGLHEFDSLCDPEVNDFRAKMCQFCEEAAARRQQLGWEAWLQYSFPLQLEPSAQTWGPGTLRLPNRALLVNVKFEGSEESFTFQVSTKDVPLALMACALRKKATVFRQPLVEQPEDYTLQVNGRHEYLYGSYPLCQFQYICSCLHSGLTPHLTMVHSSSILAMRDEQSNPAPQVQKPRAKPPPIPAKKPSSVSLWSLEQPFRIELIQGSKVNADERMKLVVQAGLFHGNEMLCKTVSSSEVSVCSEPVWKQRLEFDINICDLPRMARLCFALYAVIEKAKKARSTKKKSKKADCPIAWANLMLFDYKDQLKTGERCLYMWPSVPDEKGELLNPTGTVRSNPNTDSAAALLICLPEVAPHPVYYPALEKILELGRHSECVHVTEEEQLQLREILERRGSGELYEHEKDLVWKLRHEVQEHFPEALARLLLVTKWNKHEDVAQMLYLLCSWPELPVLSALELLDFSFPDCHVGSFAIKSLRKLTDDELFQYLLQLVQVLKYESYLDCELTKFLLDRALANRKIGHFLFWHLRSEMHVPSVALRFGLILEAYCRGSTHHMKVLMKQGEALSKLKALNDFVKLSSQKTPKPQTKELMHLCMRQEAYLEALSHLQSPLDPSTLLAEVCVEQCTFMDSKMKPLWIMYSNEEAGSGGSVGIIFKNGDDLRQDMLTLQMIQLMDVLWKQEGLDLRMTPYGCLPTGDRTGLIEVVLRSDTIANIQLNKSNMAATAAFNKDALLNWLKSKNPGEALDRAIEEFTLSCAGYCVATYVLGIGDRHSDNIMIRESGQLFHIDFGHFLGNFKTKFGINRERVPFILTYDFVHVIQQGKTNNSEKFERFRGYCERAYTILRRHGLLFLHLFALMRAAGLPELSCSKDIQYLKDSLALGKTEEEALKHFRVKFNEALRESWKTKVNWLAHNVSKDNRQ
T1 sequence (P27986 whole entry partner): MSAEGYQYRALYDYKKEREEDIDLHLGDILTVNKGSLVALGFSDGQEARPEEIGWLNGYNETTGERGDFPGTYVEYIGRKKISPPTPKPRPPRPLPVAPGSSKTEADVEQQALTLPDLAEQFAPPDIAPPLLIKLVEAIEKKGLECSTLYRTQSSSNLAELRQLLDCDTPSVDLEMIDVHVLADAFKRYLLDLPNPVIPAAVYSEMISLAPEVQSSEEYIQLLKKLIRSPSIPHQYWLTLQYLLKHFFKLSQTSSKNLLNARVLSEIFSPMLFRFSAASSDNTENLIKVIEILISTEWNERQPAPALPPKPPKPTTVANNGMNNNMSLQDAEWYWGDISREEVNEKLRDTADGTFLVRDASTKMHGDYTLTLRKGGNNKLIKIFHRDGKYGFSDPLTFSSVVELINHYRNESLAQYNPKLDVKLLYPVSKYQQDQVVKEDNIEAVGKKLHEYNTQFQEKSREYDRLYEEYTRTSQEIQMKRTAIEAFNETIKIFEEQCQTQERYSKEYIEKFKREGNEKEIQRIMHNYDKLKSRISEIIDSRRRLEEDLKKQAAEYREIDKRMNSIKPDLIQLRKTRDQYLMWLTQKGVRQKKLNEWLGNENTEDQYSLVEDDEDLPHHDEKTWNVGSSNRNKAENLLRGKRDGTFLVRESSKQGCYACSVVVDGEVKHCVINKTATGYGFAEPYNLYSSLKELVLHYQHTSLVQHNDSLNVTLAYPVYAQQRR

| IC50 [nM] | SMILES |
| --- | --- |
| 0.794 | CNC(=O)Nc1ccc(-c2ncc3c(n2)N2CCOCC2C(=O)N3Cc2ccc(S(C)(=O)=O)cc2)cc1 (stereo not drawn) [Example 91, 1-methyl-3-(4-(5-(4-(methylsulfonyl)benzyl)-6-oxo-5,6,6a,7,9,10-hexahydro-[1,4]oxazino[3,4-h]pteridin-2-yl)phenyl)urea] |
| 2 | CNC(=O)Nc1ccc(-c2ncc3c(n2)N2CCOCC2C(=O)N3Cc2ccc(-n3cncn3)cc2)cc1 (stereo not drawn) [Example 92, 1-(4-(5-(4-(1H-1,2,4-triazol-1-yl)benzyl)-6-oxo-5,6,6a,7,9,10-hexahydro-[1,4]oxazino[3,4-h]pteridin-2-yl)phenyl)-3-methylurea] |
| 0.794 | CNC(=O)Nc1ccc(-c2ncc3c(n2)N2CCOCC2C(=O)N3Cc2ccc(S(C)(=O)=O)cc2Cl)cc1 (stereo not drawn) [Example 95, 1-(4-(5-(2-chloro-4-(methylsulfonyl)benzyl)-6-oxo-5,6,6a,7,9,10-hexahydro-[1,4]oxazino[3,4-h]pteridin-2-yl)phenyl)-3-methylurea] |
| 316 | CC(=O)Nc1cccc(-c2ncc3c(n2)N2CCOCC2C(=O)N3Cc2ccc(S(C)(=O)=O)cc2)c1 (stereo not drawn) [Example 101, N-(3-(5-(4-(methylsulfonyl)benzyl)-6-oxo-5,6,6a,7,9,10-hexahydro-[1,4]oxazino[3,4-h]pteridin-2-yl)phenyl)acetamide] |
| 200 | CS(=O)(=O)Nc1ccc(-c2ncc3c(n2)N2CCOCC2C(=O)N3Cc2ccc(S(C)(=O)=O)cc2)cc1 (stereo not drawn) [Example 102, N-(4-(5-(4-(methylsulfonyl)benzyl)-6-oxo-5,6,6a,7,9,10-hexahydro-[1,4]oxazino[3,4-h]pteridin-2-yl)phenyl)methanesulfonamide] |
| 126 | CS(=O)(=O)c1ccc(CN2C(=O)C3COCCN3c3nc(-c4cccc(N)c4)ncc32)cc1 (stereo not drawn) [Example 103, 2-(3-aminophenyl)-5-(4-(methylsulfonyl)benzyl)-6a,7,9,10-tetrahydro-[1,4]oxazino[3,4-h]pteridin-6(5H)-one] |

Further lines, the compound ahead of its results:

| SMILES | IC50 [nM] |
| --- | --- |
| CNC(=O)Nc1ccc(-c2ncc3c(n2)N2CCOCC2C(=O)N3CC2CC2(F)F)cc1 (stereo not drawn) [Example 93, 1-(4-(5-((2,2-difluorocyclopropyl)methyl)-6-oxo-5,6,6a,7,9,10-hexahydro-[1,4]oxazino[3,4-h]pteridin-2-yl)phenyl)-3-methylurea] | 5.01 |
| CNC(=O)Nc1ccc(-c2ncc3c(n2)N2CCOCC2C(=O)N3CCc2c(C)n[nH]c2C)cc1 (stereo not drawn) [Example 94, 1-(4-(5-(2-(3,5-dimethyl-1H-pyrazol-4-yl)ethyl)-6-oxo-5,6,6a,7,9,10-hexahydro-[1,4]oxazino[3,4-h]pteridin-2-yl)phenyl)-3-methylurea] | 2.51 |
| O=C1C2COCCN2c2nc(-c3cn[nH]c3)ncc2N1[C@H]1CCc2ccccc21 (stereo partly drawn) [Example 96, 5-((S)-2,3-dihydro-1H-inden-1-yl)-2-(1H-pyrazol-4-yl)-6a,7,9,10-tetrahydro-[1,4]oxazino[3,4-h]pteridin-6(5H)-one] | 631 |
| CC(C)NS(=O)(=O)c1cccc(-c2ncc3c(n2)N2CCOCC2C(=O)N3Cc2ccc(S(C)(=O)=O)cc2)c1 (stereo not drawn) [Example 98, N-isopropyl-3-(5-(4-(methylsulfonyl)benzyl)-6-oxo-5,6,6a,7,9,10-hexahydro-[1,4]oxazino[3,4-h]pteridin-2-yl)benzenesulfonamide] | 6310 |
| CNC(=O)Nc1ccc(-c2ncc3c(n2)N2CCOCC2C(=O)N3C2(c3ccc(Cl)cc3)CC2)cc1 (stereo not drawn) [Example 99, 1-(4-(5-(1-(4-chlorophenyl)cyclopropyl)-6-oxo-5,6,6a,7,9,10-hexahydro-[1,4]oxazino[3,4-h]pteridin-2-yl)phenyl)-3-methylurea] | 6.31 |
| CS(=O)(=O)c1ccc(CN2C(=O)C3COCCN3c3nc(-c4ccc5cc[nH]c5c4)ncc32)cc1 (stereo not drawn) [Example 100, 2-(1H-indol-6-yl)-5-(4-(methylsulfonyl)benzyl)-6a,7,9,10-tetrahydro-[1,4]oxazino[3,4-h]pteridin-6(5H)-one] | 3980 |
